Laboratory results taken from patent US20250250299A1, “MACROCYCLIC IMMUNOMODULATORS” (Bristol-Myers Squibb Company, priority 2022, published 2025).
Where a SMILES comes first, the peptide text is derived from it. Bridges are numbered along the chain shown (N, C = ends). [ ]: non-standard residue; d: D form. The star is where a group is joined. X1 = O=C(O)CCCCCCCCCCCCCCCCC(=O)N[C@@H](CCC(=O)NCCOCCOCCOCCOCCOCCOCCOCCOCCOCCOCCOCCn1cc(C*)nn1)C(=O)O; Phe(4-COOH) = N[C@@H](Cc1ccc(C(=O)O)cc1)C(=O)O; Phe(4-CH2NH2) = NCc1ccc(C[C@H](N)C(=O)O)cc1; Bip = N[C@@H](Cc1ccc(-c2ccccc2)cc1)C(=O)O; Phe(3-Me) = Cc1cccc(C[C@H](N)C(=O)O)c1; C12 diacid = O=C(O)CCCCCCCCCCC(=O)*; 4Pal = N[C@@H](Cc1ccncc1)C(=O)O; Cha = N[C@@H](CC1CCCCC1)C(=O)O; Carboxymethyl = O=C(O)C*; NMeA = CN[C@@H](C)C(=O)O; Nle = CCCC[C@H](N)C(=O)O; Orn = NCCC[C@H](N)C(=O)O; Dab = NCC[C@H](N)C(=O)O; Dap = NC[C@H](N)C(=O)O; AEEA = NCCOCCOCC(=O)O

Target: T1, human PD-1 (Jurkat-PD-1 cells; binding of PE-labeled human PD-L1-Ig) (Homo sapiens, UniProt Q15116)
T1 construct: expressed in transfected cells; host or cells: Jurkat (Jurkat-PD-1 / Jurkat-hPD-1)
T1 sequence (Q15116 25-288): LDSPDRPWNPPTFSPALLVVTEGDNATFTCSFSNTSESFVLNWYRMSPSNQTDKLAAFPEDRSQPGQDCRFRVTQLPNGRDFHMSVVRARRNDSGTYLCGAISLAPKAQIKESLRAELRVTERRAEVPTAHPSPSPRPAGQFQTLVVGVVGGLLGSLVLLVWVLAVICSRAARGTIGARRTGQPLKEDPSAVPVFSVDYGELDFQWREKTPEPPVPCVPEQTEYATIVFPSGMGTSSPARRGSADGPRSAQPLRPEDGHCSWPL
Assay: Jurkat-PD-1 Cell Binding High-Content Screening Assay
Settings: Jurkat cell line over-expressing human PD-1; compound 2 h at 37° C., then PE-labeled PD-L1-Ig 20 nM final, 1 hour; read-out: Jurkat hPD1 PDL1 IC50
Protocol: The ability of the compounds of formula (I) to bind to PD-1 was investigated using a Jurkat-PD-1 Cell Binding High-Content Screening Assay.
Phycoerythrin (PE) was covalently linked to the Ig epitope tag of human PD-L1-Ig and fluorescently-labeled PD-L1-Ig was used for binding studies with a Jurkat cell line over-expressing human PD-1 (Jurkat-PD-1). Briefly, 8×10^3 Jurkat-hPD-1 cells were seeded into 384 well plates in 20 μl of DIVEM supplemented with 10% fetal calf serum. 100 nl of compound was added to cells followed by incubation at 37° C. for 2 h. Then, 5 μl of PE-labeled PD-L1-Ig (20 nM final), diluted in DiVEM supplemented with 10 fetal calf serum. After 1 hour incubation, cells were fixed with […] in dPBS containing 10 µg/mL Hoechst 33342 and then washed 3× in 100 μl dPB S. Data was collected and processed using a Cell Insight NXT High Content Imager and associated software.

SMILES | IC50 [nM]
CC(C)C[C@H]1NC(=O)[C@H](C)N(C)C(=O)[C@H](C(C)C)NC(=O)[C@H](Cc2ccc(-c3ccccc3)cc2)NC(=O)[C@H](C(C)C)NC(=O)[C@H](Cc2c[nH]c3ccccc23)NC(=O)[C@H](CC(=O)O)NC(=O)[C@H](Cc2ccncc2)NC(=O)[C@H](Cc2ccc(OCC(=O)O)cc2)NC(=O)CSC[C@@H](C(N)=O)NC(=O)[C@H](CO)NC(=O)[C@H](C(C)C)NC(=O)[C@H](CC2CCCCC2)NC(=O)[C@H](CCCCNC(=O)CCCCCCCCCCC(=O)O)NC1=O [Compound 1044] ({CH2CO}-Y(Carboxymethyl)[4Pal]DWV[Bip]V[NMeA][dL]K(C12 diacid)[Cha]VSC-NH2; thioether N-14) | 360
Cc1cccc(C[C@@H]2NC(=O)[C@H](CC(=O)O)NC(=O)[C@H](Cc3ccc(OCC(=O)O)cc3)NC(=O)[C@H](CN)NC(=O)CSC[C@@H](C(=O)N[C@@H](CCN)C(N)=O)NC(=O)[C@H](CCC(=O)O)NC(=O)[C@H](C(C)C)NC(=O)[C@H](CC3CCCCC3)NC(=O)[C@H](CCN)NC(=O)[C@@H](CC(C)C)NC(=O)[C@H](CCCN)NC(=O)[C@H](Cc3ccc(OCc4cn(CCOCCOCCOCCOCCOCCOCCOCCOCCOCCOCCOCCNC(=O)CC[C@H](NC(=O)CCCCCCCCCCCCCCCCC(=O)O)C(=O)O)nn4)cc3)NC(=O)[C@H](Cc3ccc(-c4ccccc4)cc3)NC(=O)[C@H](Cc3ccc(OCC(=O)O)cc3)NC2=O)c1 [Compound 1001] ({CH2CO}-[Dap]Y(Carboxymethyl)D[Phe(3-Me)]Y(Carboxymethyl)[Bip]Y(X1)[Orn][dL][Dab][Cha]VEC[Dab]-NH2; thioether N-14 (inferred)) | 160
Cc1cccc(C[C@@H]2NC(=O)[C@H](CC(=O)O)NC(=O)[C@H](Cc3ccc(OCc4cn(CCOCCOCCOCCOCCOCCOCCOCCOCCOCCOCCOCCNC(=O)CC[C@H](NC(=O)CCCCCCCCCCCCCCCCC(=O)O)C(=O)O)nn4)cc3)NC(=O)[C@H](CCN)NC(=O)CSC[C@@H](C(=O)N[C@@H](CCN)C(N)=O)NC(=O)[C@H](CCC(=O)O)NC(=O)[C@H](C(C)C)NC(=O)[C@H](CC3CCCCC3)NC(=O)[C@H](CCN)NC(=O)[C@@H](CC(C)C)NC(=O)[C@H](CCCN)NC(=O)[C@H](Cc3ccc(OCC(=O)O)cc3)NC(=O)[C@H](Cc3ccc(-c4ccccc4)cc3)NC(=O)[C@H](Cc3ccc(OCC(=O)O)cc3)NC2=O)c1 [Compound 1007] ({CH2CO}-[Dab]Y(X1)D[Phe(3-Me)]Y(Carboxymethyl)[Bip]Y(Carboxymethyl)[Orn][dL][Dab][Cha]VEC[Dab]-NH2; thioether N-14) | 510
CC(C)C[C@H]1NC(=O)[C@H](C)N(C)C(=O)[C@H](C(C)C)NC(=O)[C@H](Cc2ccc(-c3ccccc3)cc2)NC(=O)[C@H](C(C)C)NC(=O)[C@H](Cc2c[nH]c3ccccc23)NC(=O)[C@H](CC(=O)O)NC(=O)[C@H](Cc2ccc(CNC(=O)CCCCCCCCCCC(=O)O)cc2)NC(=O)[C@H](Cc2ccc(OCC(=O)O)cc2)NC(=O)CSC[C@@H](C(N)=O)NC(=O)[C@H](CO)NC(=O)[C@H](C(C)C)NC(=O)[C@H](CC2CCCCC2)NC(=O)[C@H](CC(N)=O)NC1=O [Compound 1038] ({CH2CO}-Y(Carboxymethyl)[Phe(4-CH2NH2)](C12 diacid)DWV[Bip]V[NMeA][dL]N[Cha]VSC-NH2; thioether N-14) | 180
Cc1cccc(C[C@@H]2NC(=O)[C@H](CC(=O)O)NC(=O)[C@H](Cc3ccc(OCC(=O)O)cc3)NC(=O)[C@H](CN)NC(=O)CSC[C@@H](C(=O)N[C@@H](CCN)C(=O)NCCOCCOCC(N)=O)NC(=O)[C@H](COCc3cn(CCOCCOCCOCCOCCOCCOCCOCCOCCOCCOCCOCCNC(=O)CC[C@H](NC(=O)CCCCCCCCCCCCCCCCC(=O)O)C(=O)O)nn3)NC(=O)[C@H](C(C)C)NC(=O)[C@H](CC3CCCCC3)NC(=O)[C@H](CCN)NC(=O)[C@@H](CC(C)C)NC(=O)[C@H](CCCN)NC(=O)[C@H](Cc3ccc(OCC(=O)O)cc3)NC(=O)[C@H](Cc3ccc(-c4ccccc4)cc3)NC(=O)[C@H](Cc3ccc(OCC(=O)O)cc3)NC2=O)c1 [Compound 1041] ({CH2CO}-[Dap]Y(Carboxymethyl)D[Phe(3-Me)]Y(Carboxymethyl)[Bip]Y(Carboxymethyl)[Orn][dL][Dab][Cha]VS(X1)C[Dab][AEEA]-NH2; thioether N-14) | 140
CCCC[C@@H]1NC(=O)CSC[C@@H](C(=O)N[C@@H](CCN)C(N)=O)NC(=O)[C@H](CCC(=O)O)NC(=O)[C@H](C(C)C)NC(=O)[C@H](CC2CCCCC2)NC(=O)[C@H](CCN)NC(=O)[C@@H](CC(C)C)NC(=O)[C@H](CCCN)NC(=O)[C@H](Cc2ccc(C(=O)O)cc2)NC(=O)[C@H](Cc2ccc(-c3ccccc3)cc2)NC(=O)[C@H](Cc2ccc(OCc3cn(CCOCCOCCOCCOCCOCCOCCOCCOCCOCCOCCOCCNC(=O)CC[C@H](NC(=O)CCCCCCCCCCCCCCCCC(=O)O)C(=O)O)nn3)cc2)NC(=O)[C@H](Cc2cccc(C)c2)NC(=O)[C@H](CC(=O)O)NC(=O)[C@H](Cc2ccc(C(=O)O)cc2)NC1=O [Compound 1020] ({CH2CO}-[Nle][Phe(4-COOH)]D[Phe(3-Me)]Y(X1)[Bip][Phe(4-COOH)][Orn][dL][Dab][Cha]VEC[Dab]-NH2; thioether N-14) | 96
Cc1cccc(C[C@@H]2NC(=O)[C@H](CC(=O)O)NC(=O)[C@H](Cc3ccc(OCC(=O)O)cc3)NC(=O)[C@H](CCCNC(=N)N)NC(=O)CSC[C@@H](C(=O)N[C@@H](CCN)C(N)=O)NC(=O)[C@H](CCC(=O)O)NC(=O)[C@H](C(C)C)NC(=O)[C@H](CC3CCCCC3)NC(=O)[C@H](CCN)NC(=O)[C@@H](CC(C)C)NC(=O)[C@H](CCCN)NC(=O)[C@H](Cc3ccc(OCC(=O)O)cc3)NC(=O)[C@H](Cc3ccc(-c4ccccc4)cc3)NC(=O)[C@H](Cc3ccc(OCc4cn(CCOCCOCCOCCOCCOCCOCCOCCOCCOCCOCCOCCNC(=O)CC[C@H](NC(=O)CCCCCCCCCCCCCCCCC(=O)O)C(=O)O)nn4)cc3)NC2=O)c1 [Compound 1005] ({CH2CO}-RY(Carboxymethyl)D[Phe(3-Me)]Y(X1)[Bip]Y(Carboxymethyl)[Orn][dL][Dab][Cha]VEC[Dab]-NH2; thioether N-14) | 39
Cc1cccc(C[C@@H]2NC(=O)[C@H](CC(=O)O)NC(=O)[C@H](Cc3ccc(OCC(=O)O)cc3)NC(=O)[C@H](CN)NC(=O)CSC[C@@H](C(=O)N[C@@H](CCN)C(=O)NCCOCCOCC(N)=O)NC(=O)[C@H]([C@@H](C)O)NC(=O)[C@H](C(C)C)NC(=O)[C@H](CC3CCCCC3)NC(=O)[C@H](CCN)NC(=O)[C@@H](CC(C)C)NC(=O)[C@H](COCc3cn(CCOCCOCCOCCOCCOCCOCCOCCOCCOCCOCCOCCNC(=O)CC[C@H](NC(=O)CCCCCCCCCCCCCCCCC(=O)O)C(=O)O)nn3)NC(=O)[C@H](Cc3ccc(OCC(=O)O)cc3)NC(=O)[C@H](Cc3ccc(-c4ccccc4)cc3)NC(=O)[C@H](Cc3ccc(OCC(=O)O)cc3)NC2=O)c1 [Compound 1043] ({CH2CO}-[Dap]Y(Carboxymethyl)D[Phe(3-Me)]Y(Carboxymethyl)[Bip]Y(Carboxymethyl)S(X1)[dL][Dab][Cha]VTC[Dab][AEEA]-NH2; thioether N-14) | 610
